Measurements: ChEMBL document CHEMBL1201862, “PubChem BioAssay data set” (2004)
Calls of active or inactive are those of the source.

Legend:
[1] = biological target: T1, Delta-type opioid receptor (Homo sapiens, UniProt P41143); assay: HTS Image-Based Screen for Agonists of the DOR Receptor. [Related pubchem assays (depositor defined):AID1777, AID1786, AID2133]; type: functional
[2] = HepG2 cell cytotoxicity, dose response, cytotoxicity control for non-replicating M. tuberculosis project (AID 489018); type: functional; conditions: Mycobacterium tuberculosis
cells = type: functional
Mu-type opioid receptor = Mu-type opioid receptor (Homo sapiens, UniProt P35372); assay: HTS Image-Based Screen for Agonists of the MOR Receptor. [Related pubchem assays (depositor defined):AID1777, AID1785, AID1786, AID2133]; type: functional;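 further: imaging of beta-arrestin GFP recruitment into spots after receptor activation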
Chain of Mu-type opioid receptor (P35372 whole entry): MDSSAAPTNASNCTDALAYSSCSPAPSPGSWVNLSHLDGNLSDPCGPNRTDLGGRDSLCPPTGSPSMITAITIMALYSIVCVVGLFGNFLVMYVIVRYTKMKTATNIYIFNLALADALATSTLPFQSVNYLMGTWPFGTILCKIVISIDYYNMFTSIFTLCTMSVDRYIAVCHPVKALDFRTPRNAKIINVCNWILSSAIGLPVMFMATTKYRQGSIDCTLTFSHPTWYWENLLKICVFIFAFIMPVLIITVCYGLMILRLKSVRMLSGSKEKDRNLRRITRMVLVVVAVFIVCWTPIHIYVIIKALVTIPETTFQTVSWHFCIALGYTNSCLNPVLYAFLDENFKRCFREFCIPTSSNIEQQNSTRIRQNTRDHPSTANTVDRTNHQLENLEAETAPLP

[3] = biological target: T2, Kappa-type opioid receptor (Homo sapiens, UniProt P41145); type: functional
T2 sequence (P41145 whole entry): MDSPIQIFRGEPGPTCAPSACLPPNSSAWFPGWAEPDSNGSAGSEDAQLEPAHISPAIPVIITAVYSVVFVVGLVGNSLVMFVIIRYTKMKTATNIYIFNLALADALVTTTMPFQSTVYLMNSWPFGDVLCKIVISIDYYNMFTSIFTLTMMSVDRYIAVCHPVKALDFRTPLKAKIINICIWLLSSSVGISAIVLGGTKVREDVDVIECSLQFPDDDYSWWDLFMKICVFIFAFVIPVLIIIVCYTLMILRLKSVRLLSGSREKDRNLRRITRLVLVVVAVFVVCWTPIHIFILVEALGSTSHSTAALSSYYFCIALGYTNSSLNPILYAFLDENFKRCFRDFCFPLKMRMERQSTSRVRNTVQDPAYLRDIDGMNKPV

[4] = microbe, parasite or virus in culture; type: functional; conditions: Mycobacterium tuberculosis
INS1 = assay: INS-1E survival protection against cytokine death – cell-based, luminescence, retest, dose response (AID 449756); type: functional; conditions: Rattus norvegicus;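 further: cell death triggered by IL-1 beta plus TNF-alpha plus IFN-gamma mixture; protective hits raise ATP signal compared with cytokine alone wells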
[5] = biological target: T3, Type-1 angiotensin II receptor (Homo sapiens, UniProt P30556); assay: antagonism of angiotensin II type 1 receptor – cell-based, uHTS hits, selectivity assay for APJ receptor antagonist project, dose response (AID 463214); type: functional;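 further: antagonist potency against angiotensin II stimulated AT1 response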
T3 sequence (P30556 whole entry): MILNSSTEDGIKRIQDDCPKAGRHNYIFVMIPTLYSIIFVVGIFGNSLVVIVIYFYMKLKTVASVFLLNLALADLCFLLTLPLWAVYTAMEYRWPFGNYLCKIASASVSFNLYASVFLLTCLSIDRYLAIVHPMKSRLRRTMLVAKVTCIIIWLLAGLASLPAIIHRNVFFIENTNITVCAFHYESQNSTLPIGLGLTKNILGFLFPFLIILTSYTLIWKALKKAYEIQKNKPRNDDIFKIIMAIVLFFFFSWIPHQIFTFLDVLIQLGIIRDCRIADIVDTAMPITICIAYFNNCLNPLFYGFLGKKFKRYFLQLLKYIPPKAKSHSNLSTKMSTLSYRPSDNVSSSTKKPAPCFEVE

[6] = Vero E6 cell cytotoxicity, dose response, cytotoxicity control for non-replicating M. tuberculosis project, secondary assay (AID 492998); type: functional, VeroE6; conditions: Vero C1008
[7] = biological target: T1, Delta-type opioid receptor; assay: HTS Image-Based Screen for Antagonists of the DOR Receptor. [Related pubchem assays (depositor defined):AID1777, AID1785, AID1786, AID2133]; type: functional
Beta-galactosidase [8] = biological target: T4, Beta-galactosidase (Escherichia coli, UniProt Q8VNN2); type: functional
T4 sequence (Q8VNN2 whole entry): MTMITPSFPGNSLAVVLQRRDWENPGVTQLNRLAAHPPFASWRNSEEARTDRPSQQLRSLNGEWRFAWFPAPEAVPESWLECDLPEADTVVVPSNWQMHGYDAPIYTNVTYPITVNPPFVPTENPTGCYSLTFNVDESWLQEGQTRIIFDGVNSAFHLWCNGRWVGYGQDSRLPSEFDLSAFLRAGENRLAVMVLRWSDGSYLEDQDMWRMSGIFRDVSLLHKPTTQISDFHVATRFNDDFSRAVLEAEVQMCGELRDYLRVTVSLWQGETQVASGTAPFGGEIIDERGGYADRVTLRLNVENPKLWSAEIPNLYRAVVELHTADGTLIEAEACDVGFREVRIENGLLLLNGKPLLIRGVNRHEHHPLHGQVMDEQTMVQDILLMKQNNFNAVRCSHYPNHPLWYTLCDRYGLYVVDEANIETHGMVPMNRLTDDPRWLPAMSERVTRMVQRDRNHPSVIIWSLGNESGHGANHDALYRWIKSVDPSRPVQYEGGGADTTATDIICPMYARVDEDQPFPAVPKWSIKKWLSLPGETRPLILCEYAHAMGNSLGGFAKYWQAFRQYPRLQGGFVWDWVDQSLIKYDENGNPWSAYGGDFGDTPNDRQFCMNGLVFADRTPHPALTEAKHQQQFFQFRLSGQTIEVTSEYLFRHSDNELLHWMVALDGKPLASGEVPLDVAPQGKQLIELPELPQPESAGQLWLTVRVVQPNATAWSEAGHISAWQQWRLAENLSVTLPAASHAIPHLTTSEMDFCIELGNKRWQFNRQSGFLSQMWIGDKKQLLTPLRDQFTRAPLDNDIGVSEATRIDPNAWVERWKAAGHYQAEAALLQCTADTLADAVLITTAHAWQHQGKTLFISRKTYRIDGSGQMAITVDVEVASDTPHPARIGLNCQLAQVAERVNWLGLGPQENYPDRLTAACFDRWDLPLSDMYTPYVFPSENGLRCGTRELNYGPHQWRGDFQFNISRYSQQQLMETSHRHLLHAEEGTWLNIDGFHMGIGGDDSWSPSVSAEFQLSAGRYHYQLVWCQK

[9] = biological target: T2, Kappa-type opioid receptor; type: functional; remark: listed apart in the source
Beta-galactosidase [10] = biological target: T4, Beta-galactosidase; assay: PubChem AID 485352; type: functional
[11] = THP-1 cell cytotoxicity, dose response, cytotoxicity control for non-replicating M. tuberculosis project (AID 489025); type: functional
Hexokinase-1 = biological target: T5, Hexokinase-1 (Homo sapiens, UniProt P19367); assay: HK1 enzyme activation by HKDC1 hits – biochemical, selectivity assay for HKDC1 activator project, dose response (AID 504762); type: functional
T5 sequence (P19367 whole entry): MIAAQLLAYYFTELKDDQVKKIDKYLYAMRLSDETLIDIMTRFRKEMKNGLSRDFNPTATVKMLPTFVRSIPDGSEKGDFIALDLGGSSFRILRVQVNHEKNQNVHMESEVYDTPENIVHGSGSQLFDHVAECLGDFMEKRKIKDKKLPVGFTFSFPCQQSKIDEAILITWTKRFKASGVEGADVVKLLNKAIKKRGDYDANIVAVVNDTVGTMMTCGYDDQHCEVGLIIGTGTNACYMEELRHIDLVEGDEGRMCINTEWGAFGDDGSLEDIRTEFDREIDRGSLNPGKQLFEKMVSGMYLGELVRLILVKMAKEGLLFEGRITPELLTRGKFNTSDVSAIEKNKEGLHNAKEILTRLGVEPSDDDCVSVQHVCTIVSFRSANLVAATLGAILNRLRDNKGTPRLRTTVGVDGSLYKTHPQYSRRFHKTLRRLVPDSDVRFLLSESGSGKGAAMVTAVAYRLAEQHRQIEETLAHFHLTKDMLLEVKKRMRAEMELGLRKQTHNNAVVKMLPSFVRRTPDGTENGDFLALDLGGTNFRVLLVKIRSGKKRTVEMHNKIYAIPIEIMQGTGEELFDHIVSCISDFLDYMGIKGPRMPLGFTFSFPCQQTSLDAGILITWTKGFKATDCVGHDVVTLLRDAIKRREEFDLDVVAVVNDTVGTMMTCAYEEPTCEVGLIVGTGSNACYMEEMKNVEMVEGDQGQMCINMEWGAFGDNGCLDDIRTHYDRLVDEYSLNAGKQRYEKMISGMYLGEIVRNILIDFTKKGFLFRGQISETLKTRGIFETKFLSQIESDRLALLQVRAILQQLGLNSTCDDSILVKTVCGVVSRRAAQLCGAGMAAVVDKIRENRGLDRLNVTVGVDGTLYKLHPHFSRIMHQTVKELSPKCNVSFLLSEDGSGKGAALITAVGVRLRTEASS

[12] = biological target: T6, Heat shock factor protein 1 (Mus musculus, UniProt P38532); assay: decrease of HSF1-responsive luciferase luminescence – cell-based, NIH3T3, dose retest, confirmation (AID 2382); type: functional;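 further: NIH3T3 fibroblasts with HSF1-driven luciferase reporter stressed by proteasome inhibitor MG132; luminescence from HSF1-driven luciferase expression after 8 hours of MG132 stress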
T6 sequence (P38532 whole entry): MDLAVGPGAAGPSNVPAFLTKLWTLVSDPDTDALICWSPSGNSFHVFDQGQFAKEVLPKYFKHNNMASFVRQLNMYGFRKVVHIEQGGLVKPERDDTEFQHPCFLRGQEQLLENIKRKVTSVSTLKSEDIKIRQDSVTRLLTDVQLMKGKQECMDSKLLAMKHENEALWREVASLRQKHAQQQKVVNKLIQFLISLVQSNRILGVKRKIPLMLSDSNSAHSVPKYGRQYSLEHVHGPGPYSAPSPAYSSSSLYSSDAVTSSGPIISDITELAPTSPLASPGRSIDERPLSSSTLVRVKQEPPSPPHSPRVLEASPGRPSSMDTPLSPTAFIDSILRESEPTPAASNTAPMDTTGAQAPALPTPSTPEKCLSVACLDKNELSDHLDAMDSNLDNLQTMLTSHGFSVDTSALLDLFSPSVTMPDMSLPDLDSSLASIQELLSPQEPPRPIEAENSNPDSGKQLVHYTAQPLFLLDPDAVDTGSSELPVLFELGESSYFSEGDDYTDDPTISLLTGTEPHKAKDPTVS

Hexokinase HKDC1 = biological target: T7, Hexokinase HKDC1 (Homo sapiens, UniProt Q2TB90); assay: activation of HKDC1 glucose phosphorylation – biochemical, W721R variant, dose response (AID 504730); type: functional
T7 sequence (Q2TB90 whole entry): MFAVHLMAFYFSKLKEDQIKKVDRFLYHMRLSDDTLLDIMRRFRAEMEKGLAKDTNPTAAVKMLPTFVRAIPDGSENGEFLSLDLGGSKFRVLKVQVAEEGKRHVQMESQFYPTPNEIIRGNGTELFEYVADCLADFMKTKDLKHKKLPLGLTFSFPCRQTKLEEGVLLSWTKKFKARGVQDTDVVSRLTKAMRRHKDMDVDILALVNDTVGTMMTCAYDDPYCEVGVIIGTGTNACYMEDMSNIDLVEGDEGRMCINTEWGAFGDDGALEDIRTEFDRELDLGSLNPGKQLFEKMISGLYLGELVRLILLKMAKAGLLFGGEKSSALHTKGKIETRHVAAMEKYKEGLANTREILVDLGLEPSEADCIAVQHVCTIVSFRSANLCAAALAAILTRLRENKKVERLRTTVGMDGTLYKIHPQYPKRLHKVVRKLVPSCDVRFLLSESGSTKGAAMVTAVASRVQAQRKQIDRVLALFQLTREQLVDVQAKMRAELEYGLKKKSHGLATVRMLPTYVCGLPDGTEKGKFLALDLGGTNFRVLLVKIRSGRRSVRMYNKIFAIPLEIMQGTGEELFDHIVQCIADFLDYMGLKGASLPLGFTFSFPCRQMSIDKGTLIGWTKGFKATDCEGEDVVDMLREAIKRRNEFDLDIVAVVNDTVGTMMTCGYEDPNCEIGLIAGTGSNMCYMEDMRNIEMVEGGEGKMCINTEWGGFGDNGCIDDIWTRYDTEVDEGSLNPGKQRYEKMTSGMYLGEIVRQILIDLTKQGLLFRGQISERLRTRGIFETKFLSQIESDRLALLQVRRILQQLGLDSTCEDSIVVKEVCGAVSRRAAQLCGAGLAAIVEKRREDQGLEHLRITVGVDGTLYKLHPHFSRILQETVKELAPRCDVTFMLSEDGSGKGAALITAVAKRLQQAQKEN

[13] = biological target: T8, Tyrosine-protein phosphatase non-receptor type 7 (Homo sapiens, UniProt P35236); type: functional
T8 sequence (P35236 whole entry): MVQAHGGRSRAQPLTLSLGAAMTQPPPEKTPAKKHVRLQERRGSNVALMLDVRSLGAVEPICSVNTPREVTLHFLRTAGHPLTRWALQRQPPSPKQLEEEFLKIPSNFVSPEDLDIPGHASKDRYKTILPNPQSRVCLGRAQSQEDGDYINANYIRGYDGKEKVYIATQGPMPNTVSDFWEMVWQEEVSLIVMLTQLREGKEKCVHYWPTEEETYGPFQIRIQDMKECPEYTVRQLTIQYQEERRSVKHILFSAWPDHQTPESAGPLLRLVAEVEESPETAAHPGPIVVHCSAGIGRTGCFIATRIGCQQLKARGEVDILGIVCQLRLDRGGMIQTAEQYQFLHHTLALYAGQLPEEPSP

[14] = biological target: T9, Tyrosine-protein phosphatase non-receptor type 22 (Homo sapiens, UniProt Q9Y2R2); type: functional
T9 sequence (Q9Y2R2 whole entry): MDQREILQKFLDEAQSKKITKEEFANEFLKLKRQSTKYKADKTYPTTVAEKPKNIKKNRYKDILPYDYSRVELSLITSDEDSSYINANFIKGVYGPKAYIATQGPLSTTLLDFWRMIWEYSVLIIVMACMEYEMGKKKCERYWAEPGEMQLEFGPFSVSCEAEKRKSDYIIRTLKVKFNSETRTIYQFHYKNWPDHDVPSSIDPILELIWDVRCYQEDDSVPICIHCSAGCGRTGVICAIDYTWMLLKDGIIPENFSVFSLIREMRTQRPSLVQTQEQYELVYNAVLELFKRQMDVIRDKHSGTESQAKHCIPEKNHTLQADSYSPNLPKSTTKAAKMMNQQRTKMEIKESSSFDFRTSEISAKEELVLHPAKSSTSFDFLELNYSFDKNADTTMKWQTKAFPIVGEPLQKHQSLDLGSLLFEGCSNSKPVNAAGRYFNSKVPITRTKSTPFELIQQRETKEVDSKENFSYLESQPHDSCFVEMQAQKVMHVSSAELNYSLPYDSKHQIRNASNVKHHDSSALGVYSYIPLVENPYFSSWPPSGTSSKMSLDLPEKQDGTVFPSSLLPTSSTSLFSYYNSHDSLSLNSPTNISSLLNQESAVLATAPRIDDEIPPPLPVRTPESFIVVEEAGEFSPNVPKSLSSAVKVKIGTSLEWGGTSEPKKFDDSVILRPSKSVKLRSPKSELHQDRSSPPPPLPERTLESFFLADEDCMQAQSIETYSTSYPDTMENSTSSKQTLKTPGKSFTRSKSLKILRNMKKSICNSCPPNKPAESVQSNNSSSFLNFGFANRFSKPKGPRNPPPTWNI

[15] = biological target: T9, Tyrosine-protein phosphatase non-receptor type 22; type: functional; remark: listed apart in the source
Streptococcus = assay: GAS UMAA2166 growth inhibition – luminescence, BacTiterGlo, counter-screen for streptokinase expression inhibitor project, dose response (AID 1915); type: functional, organism-based;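 further: potency for reduction of bacterial viability or growth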
[16] = Luminescence Cell-Based Dose Response HTS to Identify Inhibitors of 5'UTR Stem-Loop Driven Prion Protein mRNA Translation in H4 Neuroglioblastoma Cells. [Related pubchem assays: 1827 (Project Summary), 1813 (Primary HTS)]; type: functional
[17] = alpha-synuclein stem-loop luciferase translation blockers – H4 neuroglioma cells, luminescence, confirmation (AID 1988); type: functional, cell-based
[18] = luciferase reporter signal suppression in cells – H4 neuroglioma cells, luminescence, dose response (AID 1990); type: functional, cell-based
[19] = A Cell Based Secondary Assay To Explore Cytotoxicity of Compounds that Sensitize Mycobacterium Tuberculosis to Beta-Lactam Antibiotics.; type: functional
[20] = system: Streptococcus sp. 'group A'; assay: Streptococcus pyogenes SK(-)GAS viability under kanamycin – luminescence, BacTiterGlo, confirmation, counter-screen for streptokinase expression inhibitor project, dose response (AID 1900); type: functional, organism-based

T1 sequence (P41143 whole entry): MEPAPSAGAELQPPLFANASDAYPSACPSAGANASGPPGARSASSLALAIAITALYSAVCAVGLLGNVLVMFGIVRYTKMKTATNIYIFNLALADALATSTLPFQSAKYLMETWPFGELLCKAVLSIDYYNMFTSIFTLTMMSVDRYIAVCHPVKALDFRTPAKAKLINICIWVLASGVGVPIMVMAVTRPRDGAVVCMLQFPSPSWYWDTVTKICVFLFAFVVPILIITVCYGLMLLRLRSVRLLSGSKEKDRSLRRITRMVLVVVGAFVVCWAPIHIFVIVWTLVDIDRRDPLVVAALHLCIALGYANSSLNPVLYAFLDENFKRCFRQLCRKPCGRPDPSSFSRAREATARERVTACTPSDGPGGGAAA

SMILES: O=C(NNC(=O)C12CC3CC(CC(C3)C1)C2)c1ccccn1
- EC50 [1]: > 32 µM (inactive)
- CC50 [2]: > 20 µM (active)
- IC50 (cells): 9.85 µM (active)
- EC50 (Mu-type opioid receptor): > 32 µM (inactive)
- IC50 [3]: 15 µM (active)
- CC50 [4]: 16.7 µM (active)
- AC50 (INS1): 3.14 µM (active)
- IC50 [5]: 11.2 µM (active)
- CC50 [6]: 8.61 µM (active)
- IC50 [7]: > 32 µM (inactive)
- EC50 (Beta-galactosidase [8]): > 31.5 µM (inactive)
- IC50 [9]: > 32 µM
- EC50 (Beta-galactosidase [10]): > 40 µM (inactive)
- CC50 [11]: 5.31 µM (active)

SMILES: CCc1ccc(C2=NN=C(Nc3cccc(S(=O)(=O)N(C)C)c3)SC2)cc1
- EC50 (Hexokinase-1): 8.26 µM (active)
- AC50 (INS1): 7.54 µM (active)
- EC50 [12]: > 195 µM (not active)
- EC50 (Hexokinase HKDC1): 10.3 µM (active)

SMILES: Cc1ccc(C(=O)O)cc1NC(=O)c1ccc2c(c1)C(=O)N(c1ccc([N+](=O)[O-])cc1)C2=O
- IC50 [13]: 10.9 µM (active)
- IC50 [14]: 15 µM (active)
- IC50 [15]: 21.6 µM (active)

SMILES: CCCCN(CCCC)C(=S)N/N=C/c1c(C)nn(-c2ccccc2)c1O
- EC50 (Hexokinase-1): > 80 µM (inactive)
- EC50 (Streptococcus): 11.4 µM (active)
- EC50 [16]: 4.19 µM (active)
- EC50 [17]: > 120 µM (not active)
- IC50 [5]: 13.3 µM (active)
- EC50 [18]: 13.3 µM (active)
- EC50 (Hexokinase HKDC1): 28.7 µM (inactive)
- CC50 [19]: 5.22 µM (active)
- EC50 [20]: 0.221 µM (active)
- EC50 (Beta-galactosidase [10]): > 40 µM (inactive)
